# In the supplement of paper PMC10307832:
# Assays:
# Test in all cases: relative viability (nuclei count vs DMSO), 5 days (fraction); higher = more cells survive
# [1] = tested on: EPLC-272H
# Summary of the method: (§1)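 Five library-drug doses in √10 steps were combined with a fixed anchor-drug dose, or a single drug was given alone, by pin tool to lung cancer cell lines in 1536-well plates the day after seeding. Nuclei were stained and counted after 5 days. Relative viability is the nuclei count in treated wells over that in vehicle wells, taken as the median of duplicate plates.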
# [2] = tested on: NCI-H1666
# Summary of the method: as §1
# [3] = tested on: HCC-44
# Summary of the method: as §1
# [4] = tested on: NCI-H1395
# Summary of the method: as §1
# [5] = tested on: HOP-62
# Summary of the method: as §1
# [6] = tested on: NCI-H2087
# Summary of the method: as §1
# [7] = tested on: NCI-H2342
# Summary of the method: as §1
# [8] = tested on: NCI-H2085
# Summary of the method: as §1
# [9] = tested on: LU99A
# Summary of the method: as §1
# [10] = tested on: COR-L 105
# Summary of the method: as §1
# [11] = tested on: NCI-H358
# Summary of the method: as §1
# [12] = tested on: EKVX
# Summary of the method: as §1
# [13] = tested on: HCC-827
# Summary of the method: as §1
# [14] = tested on: LOU-NH91
# Summary of the method: as §1
# [15] = tested on: 201T
# Summary of the method: as §1
# [16] = tested on: H3255
# Summary of the method: as §1
# [17] = tested on: LCLC-97TM1
# Summary of the method: as §1
# [18] = tested on: NCI-H647
# Summary of the method: as §1
# [19] = tested on: NCI-H2126
# Summary of the method: as §1
# [20] = tested on: NCI-H1975
# Summary of the method: as §1
# [21] = tested on: NCI-H1437
# Summary of the method: as §1
# [22] = tested on: SW 1573
# Summary of the method: as §1
# [23] = tested on: BEN
# Summary of the method: as §1
# [24] = tested on: PC-3 [JPC-3]
# Summary of the method: as §1
smiles,measurement,setting,value
COc1cc(N2CCC(C(N)=O)CC2)ccc1Nc1nc(N)c(Cl)c(Nc2ccccc2S(=O)(=O)C(C)C)n1 [HG-5-88-01] + COc1cccc2cc(-c3nc([C@H]4CC[C@H](C(=O)O)CC4)n4ncnc(N)c34)[nH]c12 [OSI-027] (partner 0.5 µM),relative viability,[1]; first compound 0.04 µM,0.31
same,relative viability,[1]; first compound 0.1265 µM,0.278
same,relative viability,[1]; first compound 0.4 µM,0.294
same,relative viability,[1]; first compound 1.265 µM,0.242
same,relative viability,[1]; first compound 4 µM,0.0931
same,relative viability,[2]; first compound 0.04 µM,0.866
same,relative viability,[2]; first compound 0.1265 µM,0.859
same,relative viability,[2]; first compound 0.4 µM,0.692
same,relative viability,[2]; first compound 1.265 µM,0.605
same,relative viability,[2]; first compound 4 µM,0.532
same,relative viability,[3]; first compound 0.04 µM,0.491
same,relative viability,[3]; first compound 0.1265 µM,0.507
same,relative viability,[3]; first compound 0.4 µM,0.353
same,relative viability,[3]; first compound 1.265 µM,0.392
same,relative viability,[3]; first compound 4 µM,0.121
same,relative viability,[4]; first compound 0.04 µM,0.583
same,relative viability,[4]; first compound 0.1265 µM,0.66
same,relative viability,[4]; first compound 0.4 µM,0.638
same,relative viability,[4]; first compound 1.265 µM,0.646
same,relative viability,[4]; first compound 4 µM,0.631
same,relative viability,[5]; first compound 0.04 µM,0.726
same,relative viability,[5]; first compound 0.1265 µM,0.949
same,relative viability,[5]; first compound 0.4 µM,0.828
same,relative viability,[5]; first compound 1.265 µM,0.856
same,relative viability,[5]; first compound 4 µM,0.737
same,relative viability,[6]; first compound 0.04 µM,0.521
same,relative viability,[6]; first compound 0.1265 µM,0.542
same,relative viability,[6]; first compound 0.4 µM,0.505
same,relative viability,[6]; first compound 1.265 µM,0.349
same,relative viability,[6]; first compound 4 µM,0.215
same,relative viability,[7]; first compound 0.04 µM,0.607
same,relative viability,[7]; first compound 0.1265 µM,0.527
same,relative viability,[7]; first compound 0.4 µM,0.611
same,relative viability,[7]; first compound 1.265 µM,0.485
same,relative viability,[7]; first compound 4 µM,0.563
same,relative viability,[8]; first compound 0.04 µM,0.713
same,relative viability,[8]; first compound 0.1265 µM,0.872
same,relative viability,[8]; first compound 0.4 µM,0.615
same,relative viability,[8]; first compound 1.265 µM,0.384
same,relative viability,[8]; first compound 4 µM,0.321
same,relative viability,[9]; first compound 0.04 µM,0.245
same,relative viability,[9]; first compound 0.1265 µM,0.316
same,relative viability,[9]; first compound 0.4 µM,0.286
same,relative viability,[9]; first compound 1.265 µM,0.279
same,relative viability,[9]; first compound 4 µM,0.263
same,relative viability,[10]; first compound 0.04 µM,0.616
same,relative viability,[10]; first compound 0.1265 µM,0.776
same,relative viability,[10]; first compound 0.4 µM,0.531
same,relative viability,[10]; first compound 1.265 µM,0.371
same,relative viability,[10]; first compound 4 µM,0.316
same,relative viability,[11]; first compound 0.04 µM,0.692
same,relative viability,[11]; first compound 0.1265 µM,0.673
same,relative viability,[11]; first compound 0.4 µM,0.588
same,relative viability,[11]; first compound 1.265 µM,0.234
same,relative viability,[11]; first compound 4 µM,0.133
same,relative viability,[12]; first compound 0.04 µM,0.714
same,relative viability,[12]; first compound 0.1265 µM,0.719
same,relative viability,[12]; first compound 0.4 µM,0.724
same,relative viability,[12]; first compound 4 µM,0.535
same,relative viability,[13]; first compound 0.04 µM,0.819
same,relative viability,[13]; first compound 0.1265 µM,0.89
same,relative viability,[13]; first compound 0.4 µM,0.8
same,relative viability,[13]; first compound 1.265 µM,0.564
same,relative viability,[13]; first compound 4 µM,0.406
same,relative viability,[14]; first compound 0.04 µM,0.602
same,relative viability,[14]; first compound 0.1265 µM,0.635
same,relative viability,[14]; first compound 0.4 µM,0.615
same,relative viability,[14]; first compound 1.265 µM,0.442
same,relative viability,[14]; first compound 4 µM,0.451
same,relative viability,[15]; first compound 0.04 µM,0.84
same,relative viability,[15]; first compound 0.1265 µM,0.745
same,relative viability,[15]; first compound 0.4 µM,0.428
same,relative viability,[15]; first compound 1.265 µM,0.668
same,relative viability,[15]; first compound 4 µM,0.303
same,relative viability,[16]; first compound 0.04 µM,0.558
same,relative viability,[16]; first compound 0.1265 µM,0.538
same,relative viability,[16]; first compound 0.4 µM,0.643
same,relative viability,[16]; first compound 4 µM,0.432
same,relative viability,[17]; first compound 0.04 µM,0.445
same,relative viability,[17]; first compound 0.1265 µM,0.521
same,relative viability,[17]; first compound 0.4 µM,0.238
same,relative viability,[17]; first compound 1.265 µM,0.305
same,relative viability,[17]; first compound 4 µM,0.131
same,relative viability,[18]; first compound 0.04 µM,0.622
same,relative viability,[18]; first compound 0.1265 µM,0.63
same,relative viability,[18]; first compound 0.4 µM,0.613
same,relative viability,[18]; first compound 1.265 µM,0.566
same,relative viability,[18]; first compound 4 µM,0.648
same,relative viability,[19]; first compound 0.1265 µM,0.688
same,relative viability,[19]; first compound 0.4 µM,0.71
same,relative viability,[19]; first compound 1.265 µM,0.518
same,relative viability,[19]; first compound 4 µM,0.432
same,relative viability,[20]; first compound 0.04 µM,0.711
same,relative viability,[20]; first compound 0.1265 µM,0.803
same,relative viability,[20]; first compound 0.4 µM,0.631
same,relative viability,[20]; first compound 1.265 µM,0.461
same,relative viability,[20]; first compound 4 µM,0.19
same,relative viability,[21]; first compound 0.04 µM,0.836
same,relative viability,[21]; first compound 0.1265 µM,0.92
same,relative viability,[21]; first compound 0.4 µM,0.887
same,relative viability,[21]; first compound 1.265 µM,0.735
same,relative viability,[21]; first compound 4 µM,0.83
same,relative viability,[22]; first compound 0.04 µM,0.624
same,relative viability,[22]; first compound 0.1265 µM,0.609
same,relative viability,[22]; first compound 0.4 µM,0.359
same,relative viability,[22]; first compound 1.265 µM,0.306
same,relative viability,[22]; first compound 4 µM,0.375
same,relative viability,[23]; first compound 0.04 µM,0.305
same,relative viability,[23]; first compound 0.1265 µM,0.312
same,relative viability,[23]; first compound 0.4 µM,0.262
same,relative viability,[23]; first compound 1.265 µM,0.3
same,relative viability,[23]; first compound 4 µM,0.262
same,relative viability,[24]; first compound 0.04 µM,0.701
same,relative viability,[24]; first compound 0.1265 µM,0.759
same,relative viability,[24]; first compound 0.4 µM,0.721
same,relative viability,[24]; first compound 1.265 µM,0.543
same,relative viability,[24]; first compound 4 µM,0.577
